Experimental data: patent publication US11130793B2, “GLP-1/GLP-2 dual agonists” (Zealand Pharma A/S, priority 2016, dated 2021)
pEC50: −log10 of the molar value. Square brackets hold non-standard residues; d marks the D form. Peptide text beside a SMILES is read from it. Aib = CC(C)(N)C(=O)O

How the values were obtained:
human GLP-2 receptor = target: T1, human GLP-2 receptor (Homo sapiens, UniProt O95838, D470N); test: GLP-2 receptor potency assay (cAMP AlphaScreen, HEK293 cells stably expressing GLP-2R); type: cell-based; conditions: cAMP response, HEK293 cells expressing human GLP-2R
T1 sequence (O95838 1-553 D470N): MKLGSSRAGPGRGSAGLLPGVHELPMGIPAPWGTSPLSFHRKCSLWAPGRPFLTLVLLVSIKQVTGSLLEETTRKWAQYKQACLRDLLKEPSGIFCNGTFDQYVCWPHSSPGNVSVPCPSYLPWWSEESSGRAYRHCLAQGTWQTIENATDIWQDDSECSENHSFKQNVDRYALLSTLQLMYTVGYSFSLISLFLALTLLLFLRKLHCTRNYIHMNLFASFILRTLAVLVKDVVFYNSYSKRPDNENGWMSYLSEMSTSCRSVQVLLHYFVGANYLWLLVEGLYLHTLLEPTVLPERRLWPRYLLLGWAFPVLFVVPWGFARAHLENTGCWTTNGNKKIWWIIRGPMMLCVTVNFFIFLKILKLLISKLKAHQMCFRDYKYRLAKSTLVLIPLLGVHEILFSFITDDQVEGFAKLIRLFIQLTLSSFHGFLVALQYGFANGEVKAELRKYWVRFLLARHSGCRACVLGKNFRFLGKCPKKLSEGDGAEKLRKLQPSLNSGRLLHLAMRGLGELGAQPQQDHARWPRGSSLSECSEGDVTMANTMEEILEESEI
From the text: (§1) One useful in vitro assay for measuring GLP-1 and GLP-2 receptor activity is quantitation of cAMP, i.e. 3′-5′-cyclic adenosine monophosphate, which is a second messenger essential in many biological processes, and one of the most ubiquitous mechanisms for regulating cellular functions. […] Test compounds eliciting an increase in the intracellular level of cAMP can be tested in these assays, and the response normalized relative to a positive and negative control (vehicle) to calculate the EC50 and maximal response from the concentration response curve using the 4-parameter logistic (4PL) nonlinear model for curve fitting.
The hGLP2-R was purchased from MRC-geneservice, Babraham, Cambridge as an Image clone: 5363415 (11924-I17). For subcloning into a mammalian expression vector, primers for subcloning were obtained from DNA-Technology, Risskov, Denmark. The 5′ and 3′ primers used for the PCR reaction include terminal restriction sites for cloning and the context of the 5′ primer is modified to a Kozak consensus without changing the sequence of the product encoded by the ORF. A standard PCR reaction was run using Image clone 5363415 (11924-117) as a template with the above mentioned primers and Polymerase Herculase II Fusion in a total vol. of 50 μl. The generated PCR product was purified using GFX PCR and Gel band purification kit, digested with restriction enzymes and cloned into the mammalian expression vector using Rapid DNA Ligation Kit. Ligation reaction was transformed to XL10 Gold Ultracompetent cells and colonies were picked for DNA production using Endofree Plasmid maxi kit. Subsequent sequence analysis was conducted by MWG Eurofins, Germany.
HEK293 cells were transfected using the Lipofectamine PLUS transfection method. The day before transfection, HEK293 cells were seeded in two T75 flasks at a density of 2×10^6 cells/T75 flask in cell culturing medium without antibiotics. On the day of transfection, cells were washed with 1×DPBS and medium was replaced with Optimem to a volume of 5 mL/T75 flask before addition of Lipofectamine-plasmid complexes were added gently and drop wise to the cells in T75 flasks and replaced with growth medium after 3 hours and again to growth medium supplemented with 500 μg/mL G418 after 24 hours. Following 4 weeks in G418 selection, clones were picked and tested in a functional GLP-2 receptor potency assay as described below.
(§2) The cAMP AlphaScreen assay from Perkin Elmer was used to quantitate the cAMP response to activation of the GLP1 and GLP2 receptor, respectively. […] Data from test compounds eliciting an increase in the intracellular level of cAMP were normalized relative to the positive and negative control (vehicle) to calculate the EC50 and maximal response from the concentration response curve.

human GLP-1 receptor = target: T2, human GLP-1 receptor (Homo sapiens, UniProt P43220); test: GLP-1 receptor potency assay (cAMP AlphaScreen, HEK293 cells stably expressing GLP-1R); type: cell-based; conditions: cAMP response, HEK293 cells expressing human GLP-1R; read-out: EC50 GLP-1
T2 construct: expressed in transfected cells
From the text: as §1
The cDNA encoding the human glucagon-like peptide 1 receptor (GLP-1R) (primary accession number P43220) was cloned from the cDNA BC112126 (MGC:138331/IMAGE:8327594). The DNA encoding the GLP-1-R was amplified by PCR using primers encoding terminal restriction sites for subcloning. The 5′-end primers additionally encoded a near Kozak consensus sequence to ensure efficient translation. […] The PCR products encoding the GLP-1-R were subcloned into a mammalian expression vector containing a neomycin (G418) resistance marker. The mammalian expression vectors encoding the GLP-1-R were transfected into HEK293 cells by a standard calcium phosphate transfection method. 48 hours post-transfection, cells were seeded for limited dilution cloning and selected with 1 mg/ml G418 in the culture medium. Following 3 weeks in G418 selection clones were picked and tested in a functional GLP-1 receptor potency assay as described below.
as §2

T2 sequence (P43220 24-463): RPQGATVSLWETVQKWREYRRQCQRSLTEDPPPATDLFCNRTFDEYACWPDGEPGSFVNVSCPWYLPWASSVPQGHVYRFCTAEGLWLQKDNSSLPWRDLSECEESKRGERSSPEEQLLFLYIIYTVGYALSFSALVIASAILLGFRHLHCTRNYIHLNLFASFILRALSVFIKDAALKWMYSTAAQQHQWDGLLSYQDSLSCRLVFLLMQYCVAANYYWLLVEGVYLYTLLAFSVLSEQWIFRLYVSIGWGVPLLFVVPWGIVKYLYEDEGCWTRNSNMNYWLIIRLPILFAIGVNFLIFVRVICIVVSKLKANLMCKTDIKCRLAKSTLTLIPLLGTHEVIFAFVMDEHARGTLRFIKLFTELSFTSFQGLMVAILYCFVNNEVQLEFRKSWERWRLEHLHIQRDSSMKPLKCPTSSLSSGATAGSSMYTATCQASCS

SMILES	pEC50 (human GLP-2 receptor)	pEC50 (human GLP-1 receptor)
CC[C@H](C)[C@H](NC(=O)[C@H](Cc1ccccc1)NC(=O)[C@H](CC(=O)O)NC(=O)[C@H](CCCNC(=N)N)NC(=O)[C@H](C)NC(=O)[C@H](C)NC(=O)[C@H](CCC(N)=O)NC(=O)[C@H](CCC(=O)O)NC(=O)[C@H](CC(=O)O)NC(=O)[C@H](CC(C)C)NC(=O)[C@@H](NC(=O)[C@@H](NC(=O)[C@H](C)NC(=O)[C@H](CC(C)C)NC(=O)[C@H](CCC(=O)O)NC(=O)[C@H](CO)NC(=O)[C@@H](NC(=O)[C@H](Cc1ccccc1)NC(=O)[C@@H](NC(=O)CNC(=O)[C@H](CCC(=O)O)NC(=O)C(C)(C)NC(=O)[C@@H](N)Cc1c[nH]cn1)[C@@H](C)O)[C@@H](C)O)[C@@H](C)O)[C@@H](C)CC)C(=O)N[C@@H](C)C(=O)N[C@@H](Cc1c[nH]c2ccccc12)C(=O)N[C@@H](CC(C)C)C(=O)N[C@@H](Cc1c[nH]cn1)C(=O)N[C@@H](C)C(=O)N[C@@H](Cc1c[nH]cn1)C(=O)N[C@@H](CCCCN)C(=O)N[C@H](C(=O)N[C@H](C(=O)N[C@@H](CC(=O)O)C(=O)O)[C@@H](C)O)[C@@H](C)CC [Compound 12] (H-H[Aib]EGTFTSELATILDEQAARDFIAWLHAHKITD-OH)	10.12	10.26
CC[C@H](C)[C@H](NC(=O)[C@H](Cc1ccccc1)NC(=O)[C@H](CC(=O)O)NC(=O)[C@H](CCCNC(=N)N)NC(=O)[C@H](C)NC(=O)[C@H](C)NC(=O)[C@H](CCC(N)=O)NC(=O)[C@H](CCC(=O)O)NC(=O)[C@H](CC(=O)O)NC(=O)[C@H](CC(C)C)NC(=O)[C@@H](NC(=O)[C@@H](NC(=O)[C@H](C)NC(=O)[C@H](CC(C)C)NC(=O)[C@H](CCC(=O)O)NC(=O)[C@H](CO)NC(=O)[C@@H](NC(=O)[C@H](Cc1ccccc1)NC(=O)[C@@H](NC(=O)CNC(=O)[C@H](CCC(=O)O)NC(=O)C(C)(C)NC(=O)[C@@H](N)Cc1c[nH]cn1)[C@@H](C)O)[C@@H](C)O)[C@@H](C)O)[C@@H](C)CC)C(=O)N[C@@H](C)C(=O)N[C@@H](Cc1c[nH]c2ccccc12)C(=O)N[C@@H](CC(C)C)C(=O)N[C@@H](CCC(N)=O)C(=O)N[C@@H](C)C(=O)N[C@@H](Cc1c[nH]cn1)C(=O)N[C@@H](CCCCN)C(=O)N[C@H](C(=O)N[C@H](C(=O)N[C@@H](CC(=O)O)C(=O)O)[C@@H](C)O)[C@@H](C)CC [Compound 13] (H-H[Aib]EGTFTSELATILDEQAARDFIAWLQAHKITD-OH)	10.08	10.80
CC[C@H](C)[C@H](NC(=O)[C@H](Cc1ccccc1)NC(=O)[C@H](CC(=O)O)NC(=O)[C@H](CCCNC(=N)N)NC(=O)[C@H](C)NC(=O)[C@H](C)NC(=O)[C@H](CCC(N)=O)NC(=O)[C@H](CCC(=O)O)NC(=O)[C@H](CC(=O)O)NC(=O)[C@H](CC(C)C)NC(=O)[C@@H](NC(=O)[C@@H](NC(=O)[C@H](C)NC(=O)[C@H](CC(C)C)NC(=O)[C@H](CCC(=O)O)NC(=O)[C@H](CO)NC(=O)[C@@H](NC(=O)[C@H](Cc1ccccc1)NC(=O)[C@@H](NC(=O)CNC(=O)[C@H](CCC(=O)O)NC(=O)C(C)(C)NC(=O)[C@@H](N)Cc1c[nH]cn1)[C@@H](C)O)[C@@H](C)O)[C@@H](C)O)[C@@H](C)CC)C(=O)N[C@@H](C)C(=O)N[C@@H](Cc1c[nH]c2ccccc12)C(=O)N[C@@H](CC(C)C)C(=O)N[C@@H](Cc1ccc(O)cc1)C(=O)N[C@@H](C)C(=O)N[C@@H](Cc1c[nH]cn1)C(=O)N[C@@H](CCCCN)C(=O)N[C@H](C(=O)N[C@H](C(=O)N[C@@H](CC(=O)O)C(=O)O)[C@@H](C)O)[C@@H](C)CC [Compound 14] (H-H[Aib]EGTFTSELATILDEQAARDFIAWLYAHKITD-OH)	10.31	10.68

The next lines start with the values.

pEC50 (human GLP-2 receptor)	pEC50 (human GLP-1 receptor)	SMILES
10.39	11.15	CC[C@H](C)[C@H](NC(=O)[C@H](CC(C)C)NC(=O)[C@H](Cc1c[nH]c2ccccc12)NC(=O)[C@H](C)NC(=O)[C@@H](NC(=O)[C@H](Cc1ccccc1)NC(=O)[C@H](CC(=O)O)NC(=O)[C@H](CCCNC(=N)N)NC(=O)[C@H](C)NC(=O)[C@H](C)NC(=O)[C@H](CCC(N)=O)NC(=O)[C@H](CCC(=O)O)NC(=O)[C@H](CC(=O)O)NC(=O)[C@H](CC(C)C)NC(=O)[C@@H](NC(=O)[C@@H](NC(=O)[C@H](C)NC(=O)[C@H](CC(C)C)NC(=O)[C@H](CCC(=O)O)NC(=O)[C@H](CC(=O)O)NC(=O)[C@@H](NC(=O)[C@H](Cc1ccccc1)NC(=O)[C@@H](NC(=O)CNC(=O)[C@H](CCC(=O)O)NC(=O)C(C)(C)NC(=O)[C@@H](N)Cc1c[nH]cn1)[C@@H](C)O)[C@@H](C)O)[C@@H](C)O)[C@@H](C)CC)[C@@H](C)CC)C(=O)N[C@@H](C)C(=O)N[C@@H](Cc1c[nH]cn1)C(=O)N[C@@H](CCCCN)C(=O)N[C@H](C(=O)N[C@H](C(=O)N[C@@H](CC(=O)O)C(=O)O)[C@@H](C)O)[C@@H](C)CC [Compound 9] (H-H[Aib]EGTFTDELATILDEQAARDFIAWLIAHKITD-OH)
10.30	11.30	CC[C@H](C)[C@H](NC(=O)[C@H](CC(C)C)NC(=O)[C@H](Cc1c[nH]c2ccccc12)NC(=O)[C@H](C)NC(=O)[C@@H](NC(=O)[C@H](Cc1ccccc1)NC(=O)[C@H](CC(=O)O)NC(=O)[C@H](CCCNC(=N)N)NC(=O)[C@H](C)NC(=O)[C@H](C)NC(=O)[C@H](CCC(N)=O)NC(=O)[C@H](CCC(=O)O)NC(=O)[C@H](CC(=O)O)NC(=O)[C@H](CC(C)C)NC(=O)[C@@H](NC(=O)[C@@H](NC(=O)[C@H](CO)NC(=O)[C@H](CC(C)C)NC(=O)[C@H](CCC(=O)O)NC(=O)[C@H](CO)NC(=O)[C@@H](NC(=O)[C@H](Cc1ccccc1)NC(=O)[C@@H](NC(=O)CNC(=O)[C@H](CCC(=O)O)NC(=O)C(C)(C)NC(=O)[C@@H](N)Cc1c[nH]cn1)[C@@H](C)O)[C@@H](C)O)[C@@H](C)O)[C@@H](C)CC)[C@@H](C)CC)C(=O)N[C@@H](C)C(=O)N[C@@H](Cc1c[nH]cn1)C(=O)N[C@@H](CCCCN)C(=O)N[C@H](C(=O)N[C@H](C(=O)N[C@@H](CC(=O)O)C(=O)O)[C@@H](C)O)[C@@H](C)CC [Compound 10] (H-H[Aib]EGTFTSELSTILDEQAARDFIAWLIAHKITD-OH)
10.07	10.96	CC[C@H](C)[C@H](NC(=O)[C@H](CC(C)C)NC(=O)[C@H](Cc1c[nH]c2ccccc12)NC(=O)[C@H](C)NC(=O)[C@@H](NC(=O)[C@H](Cc1ccccc1)NC(=O)[C@H](CC(=O)O)NC(=O)[C@H](CCCNC(=N)N)NC(=O)[C@H](C)NC(=O)[C@H](C)NC(=O)[C@H](CCCCN)NC(=O)CNC(=O)[C@H](CC(=O)O)NC(=O)[C@H](CC(C)C)NC(=O)[C@@H](NC(=O)[C@@H](NC(=O)[C@H](C)NC(=O)[C@H](CC(C)C)NC(=O)[C@H](CCC(=O)O)NC(=O)[C@H](CO)NC(=O)[C@@H](NC(=O)[C@H](Cc1ccccc1)NC(=O)[C@@H](NC(=O)CNC(=O)[C@H](CCC(=O)O)NC(=O)C(C)(C)NC(=O)[C@@H](N)Cc1c[nH]cn1)[C@@H](C)O)[C@@H](C)O)[C@@H](C)O)[C@@H](C)CC)[C@@H](C)CC)C(=O)N[C@@H](C)C(=O)N[C@@H](Cc1c[nH]cn1)C(=O)N[C@@H](CCCCN)C(=O)N[C@H](C(=O)N[C@H](C(=O)N[C@@H](CC(=O)O)C(=O)O)[C@@H](C)O)[C@@H](C)CC [Compound 11] (H-H[Aib]EGTFTSELATILDGKAARDFIAWLIAHKITD-OH)
